Patent US11478445B2, “Method for treating acute myeloid leukemia” (Bionomics Limited, priority 2017, dated 2022)
Entries after “also recorded” stand apart in the source; their conditions may differ.

Key:
Assay type in all cases: cell-based, human
[1] = system: P-JNK^Thr183/Tyr185; experiment: Western blot for P-JNK in primary AML sample L-AML6; settings: L-AML6, 48 h
Description: (§1) Cells were harvested (4×10^6 for cell lines and 7×10^6 for L-AMLs) and washed 3 times with cold PBS (centrifuged at 4° C.). Lysis buffer was prepared with NP40 Cell Lysis Buffer (ThermoFisher Scientific), cOmplete protease inhibitor (Roche, 046993116001), PhosStop (Roche, 04906837001) and Pefablock (Roche, 11585916001) at the recommended concentrations. After the washes, cells were resuspended in 50 μL of lysis buffer, vortexed and incubated on ice for 30 min. Samples were vortexed every 10 min. After 30 min incubation, samples were centrifuged at 14,000 g at 4° C. for 10 min and supernatants were transferred to tubes. Protein was quantified using the DC Protein Assay kit (BioRad) per manufacturer's protocol. 50 μg of cell lines lysate or 20 μg of L-AML6 lysate were loaded for SDS-PAGE. Protein was transferred from the gels into PVDF membranes using a semi dry transfer apparatus (BioRad). The membranes were blocked for 1 h at room temperature with 5% skim milk in 0.1% TBS-t and then incubated with gentle shaking with primary antibodies overnight at 4° C. […]
(§2) Western blot analysis. […] For L-AML6 cells P-JNK^Thr183/Tyr185 and Noxa expression were determined using the specific antibodies that have been validated in the cell line experiments (FIG. 4). […]

[2] = system: healthy control (HC) BMMNC samples; experiment: Viability (Annexin V/7AAD) assay, healthy control samples
Description: (§3) Cryopreserved mononuclear cells (MNC from BM or leukapheresis samples) were thawed in a water bath at 37° C. and cell suspension transferred to a 50 mL tube. 20 mL of IMDM media (Sigma, 13390) supplemented with 20% FBS (JRH Biosciences), 50 U/mL DNase I (Sigma), 100 IU/mL penicillin (Sigma), 100 μg/mL streptomycin (Sigma) and 2 mM L-glutamine (Sigma) was added dropwise to the cells while the tube was being vortexed slowly (or mixed by hand). The cells were centrifuged at 400 g for 5 min, supernatant was discarded and the cells were washed once with 20 mL PBS. After the wash, the cells were resuspended in 25 mL IMDM (Sigma, 13390) supplemented with 20% FBS (JRH Biosciences), 100 IU/mL penicillin (Sigma), 100 μg/mL streptomycin (Sigma) and 2 mM L-glutamine (Sigma), and incubated overnight for recovery. The next morning, viability was determined by trypan blue exclusion and samples with viability lower than 85% underwent dead cell removal by density gradient centrifugation as follows: 15 mL of Lymphoprep (AXIS-Shield) was transferred to a 50 mL tube and the cell suspension (25 mL) carefully overlayed (so as not to disturb the interface mixing with the Lymphoprep). The tubes were centrifuged at 800 g for 20 min with acceleration set at 5 (half of the maximum) and no brake. MNC layer (formed in the interface between the media and the Lymphoprep) was transferred with a disposable Pasteur pipet into a 50 mL tube containing 20 mL PBS. […] Viability and cell density were determined by trypan blue exclusion and cells were plated for respective experiments as described in the Results section.
(§4) 2×10^5 cells (200 μL) were harvested in 5 mL tubes and washed 3 times with PBS. […] Results were analysed with FCS Express 4 Flow Research Edition software (De Novo Software). […]

[3] = system: Noxa; experiment: Western blot for Noxa in primary AML sample L-AML6; settings: L-AML6, 48 h
Description: as §1, §2

[4] = system: primary AML samples (MNC); experiment: Viability (Annexin V/7AAD) assay, AML samples
Description: as §3, with “After the wash, the cells were resuspended in 25 mL IMDM (Sigma, 13390) supplemented with 20% FBS (JRH Biosciences), 100 IU/mL penicillin (Sigma), 100 μg/mL streptomycin (Sigma) and 2 mM L-glutamine (Sigma), and incubated overnight for recovery.” left out, “Lymphoprep).” for “Lymphoprep). The tubes were centrifuged at 800 g for 20 min with acceleration set at 5 (half of the maximum) and no brake. MNC layer (formed in the interface between the media and the Lymphoprep) was transferred with a disposable Pasteur pipet into a 50 mL tube containing 20 mL PBS.”
as §4

COc1cc(C(=O)c2c(C)oc3c(O)c(OC)ccc23)cc(OC)c1OC [EX 1, 2-Methyl-7-hydroxy-3-(3,4,5-trimethoxybenzoyl)-6-methoxybenzofuran]
P-JNK level ([1]; 500 nM): small increase; also recorded: induced
viability (live cells, Annexin V/7AAD) ([2]; 48 h): some reduced viability
viability (live cells, Annexin V/7AAD) ([2]; up to 72 h): viability remained stable
Noxa expression [3]: no change was observed; also recorded: does not appear to change
viability (live cells, Annexin V/7AAD) ([4]; 48 h to 72 h): viability decreasing substantially

COc1cc(/C=C\c2ccc(OC)c(OP(=O)(O)O)c2OP(=O)(O)O)cc(OC)c1OC [OXi4503, reference compound]
P-JNK level ([1]; indicated doses): no apparent change
response to treatment (viability) [2]: did not show a response
Noxa expression [3]: no change was observed; also recorded: does not appear to change
response to treatment (viability) [4]: did not show a response
